Measured values published in ChEMBL document CHEMBL1130695, “Biologically selective potassium channel openers having 1,1-diethylpropyl group” (1998).
pEC50: −log10 of the molar value.

Legend:
Cavia porcellus [1] = organism: Cavia porcellus; assay: Compound was tested for relaxant activity in taenia caecum; type: functional; conditions: read-out: ED50 (the source's name)
Cavia porcellus [2] = organism: Cavia porcellus; assay: Compound was tested for relaxant activity in trachea for asthma in male guinea pigs; type: functional
Cavia porcellus [3] = organism: Cavia porcellus; assay: Compound was tested for relaxant activity in urinary bladder for urinary incontinence in male guinea pigs; type: functional
Canis familiaris = assay: Compound was tested for the antihypertensive activity in dogs by intravenous injection at a dose of 30 ug/kg; type: functional, Canis lupus familiaris
Cavia porcellus [4] = organism: Cavia porcellus; assay: Compound was tested for relaxant activity in urinary bladder for urinary incontinence in male guinea pigs at 1 uM concentration; type: functional; parameters: scale not given: the % may be the effect or the level left

pEC50 (Cavia porcellus [1]) | Compound | ED50 (Cavia porcellus [2]) [nM] | ED50 (Cavia porcellus [3]) [nM] | AHA (Canis familiaris) [delta mmHg] | Activity (Cavia porcellus [4]) [%]
6.77 | CC(C)C(C)(C)/N=C(\NC#N)Nc1cc(Cl)cc(C#N)c1 | 690 | 190 | -20.3 | –
– | CC(N/C(=N\C#N)Nc1ccncc1)C(C)(C)C (stereo unspecified) [PINACIDIL ANHYDROUS] | 2300 | 310 | – | –
7.03 | CCC(CC)(CC)/N=C(\NC#N)Nc1cc(Cl)cc(C#N)c1 | 5600 | >1000 | -18.9 | 22
– | CCC(C)(C)/N=C(\NC#N)Nc1cc(F)cc(Br)c1 | 180 | 16 | – | –
7.12 | CCC(C)(C)/N=C(\NC#N)Nc1cc(Cl)cc(C#N)c1 | 280 | 20 | -29.8 | –
7.00 | CCC(C)(CC)/N=C(\NC#N)Nc1cc(Cl)cc(C#N)c1 | 190 | 16 | -25.2 | –
– | CCC(C)(CC)/N=C(\NC#N)Nc1cc(Cl)cc(Cl)c1 | 440 | 13 | – | –
– | CCC(CC)(CC)/N=C(\NC#N)Nc1cc(Cl)cc(Cl)c1 | 30000 | >1000 | -15.9 | <5
6.33 | CC1(C)Oc2ccc(C#N)cc2[C@@H](N2CCCC2=O)[C@@H]1O [CROMAKALIM] | 1200 | 42 | -37.8 | –
7.49 | CCC(C)(C)/N=C(\NC#N)Nc1cc(Br)cc(C#N)c1 | 80 | 11 | – | –
– | CCC(C)(C)/N=C(\NC#N)Nc1cc(F)cc(Cl)c1 | 260 | 32 | – | –
